Laboratory results from patent publication US20100055217A1, “COSMETIC COMPOSITION COMPRISING A COMBINATION OF LIPOCHROMAN-6 AND AN EXTRACT OF LONGOZA, AND ITS USE” (LVMH RECHERCHE, priority 2008, published 2010).

Test system: oxidized proteins of normal human keratinocytes (NHK)
Assay: Level of oxidized proteins of epidermal cells (DNPH/anti-DNP immunostaining, confocal image analysis)
Assay type: cell-based
Settings: for Proportion of oxidized proteins/cell, KHN 0002: NHK donor KHN 0002; for Proportion of oxidized proteins/cell, KHN 0002 / Proportion of oxidized proteins/cell, KHN 9726: 48 h treatment; for Proportion of oxidized proteins/cell, KHN 9726: NHK donor KHN 9726; for DNP marking/no. of cells / DNP marking/surface area measured / Surface area of DNP marking: NHK; for DNP marking/no. of cells / DNP marking/surface area measured / Surface area of DNP marking / Proportion of oxidized proteins/cell, Average / Reduction %/control: 48 h; for Proportion of oxidized proteins/cell, Average / Reduction %/control: average of both NHK donors; for Reduction %/control: vs control excipient
Description: Normal human keratinocytes (NHK) isolated from two samplings of humans skin from two different donors, and referred to hereinafter as KHN002 and KHN9726, are cultured in T75 flasks in complete KSFM medium (Invitrogen GIBCO) at 37° C. and 5% of CO2, and are seeded at 20 000 cells per well in 8-well Lab-Tek II culture systems (Nalge Nunc International).
After 48 h of culture, the cells are treated with the treatment solutions (see below).
A solution of Lipochroman-6 at 0.004% by weight per volume (w/v) is prepared (solution A).
This is done by dissolving 20 mg of lipochroman-6 powder (supplier: Lipotec) in 2 ml of ethanol (solution at 10 mg/ml). This solution is diluted (40 μl of the stock solution in 10 ml of KSFm medium) to give solution A.
Furthermore, a solution of Longoza at 0.2% w/v in the KSFMc medium is prepared (solution B), from the 1% w/v solution prepared in accordance with step g) of Example 1. The 1% w/v Longoza extract solution is diluted ([…] of the 1% w/v solution in 6 ml of KSFm medium) to give said solution B.
The treatment solutions are prepared by diluting solutions A and B, prepared above, in the KSFMc medium to give the correct percentage of each of the actives of the combination (% expressed by weight per volume).
Each treatment is carried out on 3 wells per cell type. • control: KSFMc • solvent control: ethanol 0.1% in KSFMc medium • lipochroman 0.001% • lipochroman 0.002% • lipochroman 0.001%+Longoza 0.05% • lipochroman 0.001%+Longoza 0.1% • lipochroman 0.002%+Longoza 0.05% • lipochroman 0.002%+Longoza 0.1%
After 48 hours of treatment, the KSFM medium is drawn off.
The cells are rinsed with PBS (PBS Tablets, Invitrogen GIBCO), and then fixed on slides by means of formaline (Formalin Solution 10% Neutral Buffered, Sigma) for 10 minutes at ambient temperature. After rinsing with PBS, the culture chambers are filled with a 0.1% Triton solution (Triton X-100, Sigma) for 10 minutes and then rinsed with PBS.
The culture chambers are subsequently disassembled and the slides are immersed in a solution of 2,4-dinitrophenylhydrazine (300 mg of DNPH (Fluka) in an ethanol/sulphuric acid mixture (98.5 ml/1.5 ml)) for 30 minutes.
The DNPH reacts with the carbonyl groups of the oxidized proteins in accordance with the following reaction:
The slides are rinsed ten times with PBS. The cells are then covered with a solution of PBS/BSA at 1% (10 g/l) by weight at ambient temperature for 30 minutes.
The dinitrophenyl (DNP) groups bound to the oxidized proteins are recognized by a primary anti-DNP antibody.
For this purpose, in a first step, the slides are covered with a solution of primary antibody (monoclonal mouse anti-DNP antibody, Sigma), diluted at 1/500 th in a PBS/BSA 1% solution, and are incubated for 60 minutes at ambient temperature in an oven, then rinsed with a PBS-Tween0.1% (Tween20, Merck) solution.
In a second step, the cells are covered with a solution of secondary antibody (Alexafluor 546 Goat anti-mouse, Invitrogen) in a PBS/BSA 1% by weight solution, and are incubated in the absence of light for 60 minutes. The slides are subsequently rinsed with PBS-Tween and then with PBS.
In a third step, a few drops of aqueous mounting medium (Fluorescent Mounting Medium, DAKO, S 3023) are applied to the slides, which are subsequently stored at 4° C. in the dark.
The photographs are taken by confocal microscopy (Axioplan microscope, Zeiss, and Krypton-Argon Laser, BioRad) with the aid of the LaserSharp 2000 software (BioRad). For each condition, three photos are taken with the x40 lens, with the same acquisition parameters (gain, iris).
The excitation wavelength of the fluorochrome is 546 nm and the emission wavelength is 573 nm.
In practice, an exciting fluorescence at […] is applied by the confocal laser to the cells. The fluorochrome Alexafluor 546, which represents the oxidized proteins, emits fluorescence at 573 nm, which is recovered by a specific filter and can be observed. […]

Structure (SMILES): COc1cc2c(cc1O)CCC(C)(C)O2 [lipochroman-6]
- Proportion of oxidized proteins/cell, KHN 0002 (lipochroman-6 0.001% w/v): 76.3
- Proportion of oxidized proteins/cell, KHN 0002 (lipochroman-6 0.002% w/v): 60.9
- Proportion of oxidized proteins/cell, KHN 9726 (lipochroman-6 0.001% w/v): 88
- Proportion of oxidized proteins/cell, KHN 9726 (lipochroman-6 0.002% w/v): 43
- DNP marking/no. of cells (Lipochroman 0.001%): 82.1
- DNP marking/surface area measured (Lipochroman 0.001%): 28.7%
- Surface area of DNP marking (Lipochroman 0.001%): 3776
- DNP marking/no. of cells (Lipochroman 0.002%): 52.0
- DNP marking/surface area measured (Lipochroman 0.002%): 18.4%
- Surface area of DNP marking (Lipochroman 0.002%): 2415
- Proportion of oxidized proteins/cell, Average (lipochroman-6 0.001% w/v): 82.1
- Reduction %/control (lipochroman-6 0.001% w/v): −19.43%
- Proportion of oxidized proteins/cell, Average (lipochroman-6 0.002% w/v): 52
- Reduction %/control (lipochroman-6 0.002% w/v): −48.97%
